Source: article PMC2994747, “Molecular Characterization of c-Abl/c-Src Kinase Inhibitors Targeted against Murine Tumour Progenitor Cells that Express Stem Cell Markers” (PLoS ONE, 2010)
Where a name gives a salt, the structure may show the parent alone. Read-outs that look alike come from different tables or passages of the source.

Columns and labels:
c-Abl = target: T1, c-Abl (Homo sapiens, UniProt P00519); experiment: Abl filter-binding kinase assay (Abtide, [γ-32P]ATP); assay type: biochemical; details: isolated Abl; calculated from ID50, ATP-competitive; E0 0.005, S0 0.012 µM
T1 construct: His tag; purchased Upstate (Lake Placid, NY, USA)
Experimental: (§1) Baculovirus-produced recombinant purified his-tagged active against human Src and Abl were purchased from Upstate (Lake Placid, NY, USA).
(§2) Src activity was measured in a filter-binding assay using the Src Assay Kit (Upstate, Lake Placid, NY, USA), according to the manufacturer's protocol, using the specific Src peptide substrate [[…]] in the presence of 0.125 pmol of Src and 0.160 pmol of [γ-^32P]ATP. Abl activity was measured in a filter-binding assay using an Abl specific peptide substrate (Abtide, Upstate). Reaction conditions were (in a final volume of 10 µl): 25 mM Tris-HCl pH 7.5, 1 mM DTT, 0.012 µM [γ-^32P]ATP, 0.022 µM c-Abl. Reactions were incubated 10 min at 30°C.The samples (9 µl) were spotted on paper cellulose filters which were washed according to the manufacturer's protocol. Filter-bound radioactivity was measured by liquid scintillation with a Microbeta-Trilux apparatus (PerkinElmer, Waltham, MA, USA).
(§3) The ID50 were converted to Ki according to a competitive mechanism with respect to the substrate ATP. […] Since (i) the ATP concentration was limiting, i.e., [ATP], Km(ATP), and (ii) the enzyme concentration was not negligible with respect to the ATP concentration, the classical Cheng-Prusoff relationship was not applicable. Consequently, Ki values were calculated according to [drawing 3] (2) where S0 is the concentration of the competing substrate (ATP) and E0 is the concentration of the enzyme. Each experiment was done in triplicate and mean values were used for the interpolation. Curve fitting was performed with the program GraphPad Prism.

c-Src = target: T2, c-Src (Homo sapiens, UniProt P12931); experiment: Src filter-binding kinase assay (Src Assay Kit); assay type: biochemical; details: isolated Src; calculated from ID50, ATP-competitive; E0 0.005, S0 0.012 µM
T2 construct: His tag; purchased Upstate (Lake Placid, NY, USA)
Experimental: as §1, §2, §3

A2C12 [1] = experiment: MTS cell viability assay; assay type: cell-based, mouse; details: Mus musculus
Experimental: (§4) Three human and eleven murine cancer cell lines were used. The human NSCLC cell line A549 (ACC 107) and the human colorectal carcinoma cell line CaCo2 (ACC 169) were obtained from Deutsche Sammlung von Mikroorganismen und Zellkulturen (DSMZ, Braunschweig, Germany). The human hepatocellular carcinoma cell line HepG2 (HB-8065) was obtained from American Type Culture Collection (Manassas, VA, USA). The 11 murine NSCLC cell lines were established as described recently. Cells were grown in monolayer cultures in DMEM containing 10% foetal calf serum, 4 mmol/l L-glutamine and 2% Penicillin/Streptomycin at 37°C in a humidified atmosphere of 95% air and 5% CO2.
(§5) Cell culture viability was monitored by CellTiter96® AQueous One Solution Cell Proliferation Assay (Promega GmbH, Mannheim, Germany). The cells were seeded in triplicates in 96-well microtitre plates and treated with the dual kinase inhibitors or vehicle (0.2% DMSO). After 24 h or 96 h of treatment the MTS tetrazolium reagent was added to the cells and incubated for 1 h. Absorbance at 490 nm was assayed with a Victor3 Wallac 1420 Multilabel counter (PerkinElmer, Waltham, MA, USA).

BetaD5 [2] = experiment: MTS cell viability assay; assay type: cell-based, mouse; details: Mus musculus
Experimental: as §4, §5

GammaA3 [3] = experiment: MTS cell viability assay; assay type: cell-based, mouse; details: Mus musculus
Experimental: as §4, §5

GammaD12 [4] = experiment: MTS cell viability assay; assay type: cell-based, mouse; details: Mus musculus, MTS
Experimental: as §4, §5

A549 [5] = experiment: MTS cell viability assay; assay type: cell-based, human; details: Homo sapiens
Experimental: as §4, §5

CaCo2 [6] = experiment: MTS cell viability assay; assay type: cell-based, human; details: Homo sapiens
Experimental: as §4, §5

HepG2 [7] = experiment: MTS cell viability assay; assay type: cell-based, human; details: Homo sapiens
Experimental: as §4, §5

A2C12 [8] = experiment: Cell cycle analysis by flow cytometry; assay type: cell-based, mouse; details: IC50 concentration, 96 h
Experimental: (§6) CycleTEST™ PLUS DNA Reagent Kit (Becton Dickinson GmbH, Heidelberg, Germany) for cell cycle analysis was used, according to the instructions of the manufacturer. Briefly, the cells were harvested with trypsin, washed with PBS, and resuspended in CycleTEST Buffer. The cells were centrifuged and resuspended in solution A. After incubation for 10 min at room temperature, solution B was added and incubated. After adding solution C, the samples were incubated at 4°C protected from light. The samples were stored on ice and protected from light until analysis by FACScan flow cytometer (Becton Dickinson GmbH, Heidelberg, Germany).

BetaD5 [9] = experiment: Cell cycle analysis by flow cytometry; assay type: cell-based, mouse; details: IC50 concentration, 96 h
Experimental: as §6

GammaA3 [10] = experiment: Cell cycle analysis by flow cytometry; assay type: cell-based, mouse; details: IC50 concentration, 96 h
Experimental: as §6

GammaD12 [11] = experiment: Cell cycle analysis by flow cytometry; assay type: cell-based, mouse; details: IC50 concentration, 96 h
Experimental: as §6

A549 [12] = experiment: Cell cycle analysis by flow cytometry; assay type: cell-based, human; details: IC50 concentration, 96 h
Experimental: as §6

CaCo2 [13] = experiment: Cell cycle analysis by flow cytometry; assay type: cell-based, human; details: IC50 concentration, 96 h
Experimental: as §6

HepG2 [14] = experiment: Cell cycle analysis by flow cytometry; assay type: cell-based, human; details: IC50 concentration, 96 h
Experimental: as §6

leukaemia cells = details: cited from earlier work
[15] = 24 h, read-out: Calculated IC50 after single treatment for 24 h
[16] = 96 h, read-out: Calculated IC50 after daily treatment for 96 h

T2 sequence (P12931 whole entry): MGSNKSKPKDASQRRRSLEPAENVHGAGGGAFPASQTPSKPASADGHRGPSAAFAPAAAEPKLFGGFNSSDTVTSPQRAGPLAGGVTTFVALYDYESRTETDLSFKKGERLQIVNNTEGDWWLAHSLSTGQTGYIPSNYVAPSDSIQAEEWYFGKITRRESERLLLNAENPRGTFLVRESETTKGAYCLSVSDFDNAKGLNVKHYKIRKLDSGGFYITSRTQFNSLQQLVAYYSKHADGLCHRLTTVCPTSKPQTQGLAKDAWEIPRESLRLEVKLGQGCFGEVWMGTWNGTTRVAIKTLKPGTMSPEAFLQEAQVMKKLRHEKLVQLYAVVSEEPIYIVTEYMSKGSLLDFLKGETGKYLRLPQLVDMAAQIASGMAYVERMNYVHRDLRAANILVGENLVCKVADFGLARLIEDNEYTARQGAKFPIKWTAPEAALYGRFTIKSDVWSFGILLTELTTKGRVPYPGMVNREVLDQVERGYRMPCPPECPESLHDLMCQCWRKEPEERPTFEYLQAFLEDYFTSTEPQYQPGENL
T1 sequence (P00519 whole entry): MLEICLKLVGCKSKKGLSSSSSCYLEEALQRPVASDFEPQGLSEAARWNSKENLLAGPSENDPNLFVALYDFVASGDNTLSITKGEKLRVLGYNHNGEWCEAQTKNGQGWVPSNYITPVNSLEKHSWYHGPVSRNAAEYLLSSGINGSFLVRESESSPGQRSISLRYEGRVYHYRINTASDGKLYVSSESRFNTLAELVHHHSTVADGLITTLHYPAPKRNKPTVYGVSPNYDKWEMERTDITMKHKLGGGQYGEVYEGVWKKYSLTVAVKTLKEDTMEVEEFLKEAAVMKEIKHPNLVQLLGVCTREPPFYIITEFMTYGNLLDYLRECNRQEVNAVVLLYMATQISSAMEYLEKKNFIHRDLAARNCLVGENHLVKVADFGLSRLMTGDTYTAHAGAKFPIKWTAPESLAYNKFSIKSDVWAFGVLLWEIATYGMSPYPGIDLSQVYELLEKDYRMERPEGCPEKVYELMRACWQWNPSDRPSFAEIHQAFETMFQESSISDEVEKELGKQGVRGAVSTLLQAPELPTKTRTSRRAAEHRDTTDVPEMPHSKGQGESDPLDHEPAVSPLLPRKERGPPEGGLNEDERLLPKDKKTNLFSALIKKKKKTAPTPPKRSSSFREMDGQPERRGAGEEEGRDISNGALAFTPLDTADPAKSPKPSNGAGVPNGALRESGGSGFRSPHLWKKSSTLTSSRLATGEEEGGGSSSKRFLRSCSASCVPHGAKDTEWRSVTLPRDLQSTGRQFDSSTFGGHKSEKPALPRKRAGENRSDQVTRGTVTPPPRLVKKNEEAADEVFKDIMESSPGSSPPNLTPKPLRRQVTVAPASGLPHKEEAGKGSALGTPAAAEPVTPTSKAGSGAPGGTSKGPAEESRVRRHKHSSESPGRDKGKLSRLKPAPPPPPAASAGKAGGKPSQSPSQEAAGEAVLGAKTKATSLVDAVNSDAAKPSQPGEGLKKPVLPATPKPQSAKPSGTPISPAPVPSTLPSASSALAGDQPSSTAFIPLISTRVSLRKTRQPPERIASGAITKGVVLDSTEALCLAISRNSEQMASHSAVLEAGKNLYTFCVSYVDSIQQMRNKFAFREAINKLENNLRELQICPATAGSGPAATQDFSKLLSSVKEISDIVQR

With CC(C)Sc1nc(NCCc2ccccc2)c2cnn(CC(Cl)c3ccccc3)c2n1 (stereo not drawn) [Si142] the Ki (c-Abl) was 0.12 µM, the Ki (c-Src) was 2 µM and the IC50 (A2C12 [1]; [15]) was 40.4 ± 2.1 µM. The IC50 (A2C12 [1]; [16]) was 5.3 ± 0.2 µM, the IC50 (BetaD5 [2]; [15]) was 11 ± 0.7 µM and the IC50 (BetaD5 [2]; [16]) was 8.7 ± 0.7 µM. It also gave an IC50 (GammaA3 [3]; [15]) of 18.7 ± 4 µM, an IC50 (GammaA3 [3]; [16]) of 7.1 ± 0.5 µM and an IC50 (GammaD12 [4]; [15]) of 11.8 ± 1.6 µM. The IC50 (GammaD12 [4]; [16]) was 7.7 ± 0.5 µM, the IC50 (A549 [5]; A549, 24 h, 24 h, read-out: Calculated IC50 after single treatment for 24 h) was over 100 µM and the IC50 (A549 [5]; A549, 96 h, 96 h, read-out: Calculated IC50 after daily treatment for 96 h) was 8.1 ± 0.7 µM. The IC50 (CaCo2 [6]; Caco-2, 24 h, read-out: Calculated IC50 after single treatment for 24 h) was 89.2 ± 4.6 µM, the IC50 (CaCo2 [6]; Caco-2, 96 h, read-out: Calculated IC50 after daily treatment for 96 h) was 6.8 ± 0.9 µM and the IC50 (HepG2 [7]; [15]) was 89.2 ± 4.6 µM. For the same compound, the IC50 (HepG2 [7]; [16]) was 16.9 ± 2.6 µM, the “Cells in G1 phase” value (A2C12 [8]) was 71.3% and the “Cells in G2 phase” value (A2C12 [8]) was 13.4%. The “Cells in S phase” value (A2C12 [8]) was 15.3%, the “Cells in G1 phase” value (BetaD5 [9]) was 53.6% and the “Cells in G2 phase” value (BetaD5 [9]) was 25.8%. The “Cells in S phase” value (BetaD5 [9]) was 20.6%, the “Cells in G1 phase” value (GammaA3 [10]) was 67% and the “Cells in G2 phase” value (GammaA3 [10]) was 15.5%. The “Cells in S phase” value (GammaA3 [10]) was 17.5%, the “Cells in G1 phase” value (GammaD12 [11]) was 33.7% and the “Cells in G2 phase” value (GammaD12 [11]) was 6.6%. For the same compound, the “Cells in S phase” value (GammaD12 [11]) was 59.7%, the “Cells in G1 phase” value (A549 [12]) was 75.4% and the “Cells in G2 phase” value (A549 [12]) was 2.2%. The “Cells in S phase” value (A549 [12]) was 25.7%, the “Cells in G1 phase” value (CaCo2 [13]) was 55.6% and the “Cells in G2 phase” value (CaCo2 [13]) was 11.5%. For the same compound, the “Cells in S phase” value (CaCo2 [13]) was 32.9%, the “Cells in G1 phase” value (HepG2 [14]) was 53.5% and the “Cells in G2 phase” value (HepG2 [14]) was 7.9%. For the same compound, the “Cells in S phase” value (HepG2 [14]) was 38.6% and the melting point was 125 to 126 °C.

In the case of Cc1ccc(NC(=O)c2ccc(CN3CCN(C)CC3)cc2)cc1Nc1nccc(-c2cccnc2)n1 [Imatinib, Imatinib mesylate], the “Antiproliferative effect for leukaemia cells” value (leukaemia cells) is given as “submicromolar range”.
